Assays:
CFTR Cl^− channel = target: T1, CFTR Cl^− channel (Rattus norvegicus, UniProt P34158); experiment: Short-circuit current in isolated rat colonic mucosa; settings: 5 μM to the mucosal solution alone, after amiloride and forskolin 20 μM
T1 construct: from tissue; host or cells: rat colon mucosa

cellular cAMP production = experiment: Intracellular cAMP assay in FRT cells; type: cell-based, rat
[1] = system: Calcium-sensitive Cl^− channels; experiment: UTP-stimulated Ca^2+-dependent Cl^− secretion, short-circuit current in human bronchial epithelial cells; type: cell-based
Text: Two non-CFTR Cl^− channels were studied.

wildtype CFTR = wildtype CFTR (Homo sapiens, UniProt P13569); experiment: YFP fluorescence assay of CFTR-mediated I^− transport in FRT cells; type: cell-based; parameters: expressed in transfected cells; host or cells: Fischer rat thyroid (FRT) cells
Experimental: FIG. 1A is a schematic representation of a screening technique used for detection of CFTR inhibitors. CFTR was maximally stimulated by multiple agonists in stably transfected epithelial cells co-expressing human CFTR and a yellow fluorescent protein (YFP) having Cl^−/I^− sensitive fluorescence. After addition of a test compound, I^− influx was induced by adding an I^− containing solution.
Cells were plated in 96-well black-walled microplates (Corning Costar) at a density of 20,000 cells per well in Coon's modified F12 medium supplemented with 5% fetal calf serum, 2 mM L-glutamine, 100 U/mL penicillin, and 100 μg/mL streptomycin. Assays were done at 48 hours after plating at which time cells were just confluent (˜40,000 cells per well).
Assays were done using a customized screening system (Beckman) consisting of a 3-meter robotic arm, CO2 incubator, plate washer, liquid handling workstation, bar code reader, delidding station, and two FluoStar fluorescence plate readers (BMG Labtechnologies, Offenburg, Germany), each equipped with two syringe pumps and HQ500/20X (500±10 nm) excitation and HQ535/30M (535±15 nm) emission filters (Chroma). The robotic system was integrated using SAMI version 3.3 software (Beckman) modified for two plate readers. Custom software was written in VBA (Visual Basic for Applications) to compute baseline-subtracted, normalized fluorescence slopes (giving halide influx rates) from stored data files.
The assay was set-up by loading the incubator (37° C., 90% humidity, 5% CO2) with 40-60 96-well plates containing the FRT cells, and loading a carousel with 96-well plates containing test compounds and disposable plastic pipette tips. To initiate the assay, each well of a 96-well plate was washed 3 times in PBS (300 μL/wash), leaving 50 μL PBS. Ten μL of a CFTR-activating cocktail (5 μM forskolin, 100 μM IBMX, 25 μM apigenin in PBS) was added, and after 5 min one test compound (0.5 μL of 1 mM DMSO solution) was added to each well to give 10 μM final concentration. After 10 min, 96-well plates were transferred to a plate reader for fluorescence assay. Each well was assayed individually for CFTR-mediated I^− transport by recording fluorescence continuously (200 ms per point) for 2 s (baseline) and then for 12 s after rapid (<0.5 s) addition of 160 μL of isosmolar PBS in which 137 mM Cl^− was replaced by I^−.
The primary screening technique used to identify the compounds of the invention was designed to identify inhibitors of CFTR Cl^− conductance by direct CFTR-inhibitor interaction. CFTR was pre-stimulated in CFTR-expressing FRT cells by an activating cocktail containing forskolin, IBMX and apigenin, as shown schematically in FIG. 1A. The activation of CFTR by multiple mechanisms (cAMP elevation, phosphodiesterase inhibition, and direct CFTR binding) allowed identification of inhibitors that blocked the CFTR Cl^− transporting pathway directly rather than more proximal step(s) in a signaling pathway. The FRT cells co-expressed a yellow fluorescent protein-based Cl^−/I^− sensor that provided a quantitative fluorescence read-out of inhibition potency (See, e.g., Jayaraman et al., 2000, J. Biol. Chem. 275:6047-6050; Galietta et al., 2001, Am. J. Physiol. 281:C1734-C1742.). After CFTR pre-stimulation and compound addition, cells were subjected to an inwardly-directed I^− gradient to drive I^− influx and produce decreasing fluorescence. Each assay consisted of recording baseline fluorescence for 2 seconds, followed by 12 seconds of continuous recording of fluorescence after rapid addition of the I^− containing solution. Compounds were tested separately at 10 μM concentration in a 96-well format utilizing a fully-automated high-throughput screening apparatus (see Example 2 below).

MDR-1 = target: T2, MDR-1 (Homo sapiens, UniProt P08183); experiment: MDR-1 activity, ^3H-vincristine accumulation in 9HTEo-/Dx cells; type: cell-based; settings: 5 μM
T2 construct: endogenous in cells; host or cells: 9HTEo-/Dx cells
T2 sequence (P08183 whole entry): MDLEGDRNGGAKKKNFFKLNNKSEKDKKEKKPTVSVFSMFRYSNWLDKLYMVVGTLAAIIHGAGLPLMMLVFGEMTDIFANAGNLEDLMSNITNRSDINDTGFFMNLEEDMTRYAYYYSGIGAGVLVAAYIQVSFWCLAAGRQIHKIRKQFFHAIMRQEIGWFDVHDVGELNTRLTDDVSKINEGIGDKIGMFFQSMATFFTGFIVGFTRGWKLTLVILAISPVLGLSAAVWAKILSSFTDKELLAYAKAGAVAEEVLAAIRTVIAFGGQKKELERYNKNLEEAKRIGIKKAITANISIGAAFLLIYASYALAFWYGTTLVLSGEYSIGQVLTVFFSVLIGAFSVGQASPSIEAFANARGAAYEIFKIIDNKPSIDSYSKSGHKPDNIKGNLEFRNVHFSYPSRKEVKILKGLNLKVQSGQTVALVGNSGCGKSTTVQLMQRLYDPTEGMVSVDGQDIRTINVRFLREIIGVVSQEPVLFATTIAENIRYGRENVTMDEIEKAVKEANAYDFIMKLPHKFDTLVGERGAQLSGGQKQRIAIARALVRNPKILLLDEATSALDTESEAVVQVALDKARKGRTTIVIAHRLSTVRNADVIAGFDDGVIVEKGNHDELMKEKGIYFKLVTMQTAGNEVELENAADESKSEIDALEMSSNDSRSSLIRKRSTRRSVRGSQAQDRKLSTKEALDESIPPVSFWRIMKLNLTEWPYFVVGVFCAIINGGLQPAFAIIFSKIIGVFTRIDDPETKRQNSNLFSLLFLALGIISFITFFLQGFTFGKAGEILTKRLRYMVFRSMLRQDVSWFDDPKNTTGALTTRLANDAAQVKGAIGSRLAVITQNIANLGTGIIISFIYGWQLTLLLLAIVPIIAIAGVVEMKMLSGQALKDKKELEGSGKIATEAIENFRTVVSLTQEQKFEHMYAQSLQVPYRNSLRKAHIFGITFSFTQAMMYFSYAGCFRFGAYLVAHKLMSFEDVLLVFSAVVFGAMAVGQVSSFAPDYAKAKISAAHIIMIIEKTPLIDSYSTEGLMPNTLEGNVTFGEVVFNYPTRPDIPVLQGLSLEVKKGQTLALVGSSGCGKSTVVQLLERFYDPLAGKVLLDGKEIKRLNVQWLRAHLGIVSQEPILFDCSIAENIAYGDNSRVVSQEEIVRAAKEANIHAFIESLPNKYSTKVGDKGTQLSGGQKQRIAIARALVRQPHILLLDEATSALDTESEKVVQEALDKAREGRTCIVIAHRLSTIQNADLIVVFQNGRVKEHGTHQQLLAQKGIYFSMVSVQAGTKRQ

Sequence of wildtype CFTR (P13569 whole entry): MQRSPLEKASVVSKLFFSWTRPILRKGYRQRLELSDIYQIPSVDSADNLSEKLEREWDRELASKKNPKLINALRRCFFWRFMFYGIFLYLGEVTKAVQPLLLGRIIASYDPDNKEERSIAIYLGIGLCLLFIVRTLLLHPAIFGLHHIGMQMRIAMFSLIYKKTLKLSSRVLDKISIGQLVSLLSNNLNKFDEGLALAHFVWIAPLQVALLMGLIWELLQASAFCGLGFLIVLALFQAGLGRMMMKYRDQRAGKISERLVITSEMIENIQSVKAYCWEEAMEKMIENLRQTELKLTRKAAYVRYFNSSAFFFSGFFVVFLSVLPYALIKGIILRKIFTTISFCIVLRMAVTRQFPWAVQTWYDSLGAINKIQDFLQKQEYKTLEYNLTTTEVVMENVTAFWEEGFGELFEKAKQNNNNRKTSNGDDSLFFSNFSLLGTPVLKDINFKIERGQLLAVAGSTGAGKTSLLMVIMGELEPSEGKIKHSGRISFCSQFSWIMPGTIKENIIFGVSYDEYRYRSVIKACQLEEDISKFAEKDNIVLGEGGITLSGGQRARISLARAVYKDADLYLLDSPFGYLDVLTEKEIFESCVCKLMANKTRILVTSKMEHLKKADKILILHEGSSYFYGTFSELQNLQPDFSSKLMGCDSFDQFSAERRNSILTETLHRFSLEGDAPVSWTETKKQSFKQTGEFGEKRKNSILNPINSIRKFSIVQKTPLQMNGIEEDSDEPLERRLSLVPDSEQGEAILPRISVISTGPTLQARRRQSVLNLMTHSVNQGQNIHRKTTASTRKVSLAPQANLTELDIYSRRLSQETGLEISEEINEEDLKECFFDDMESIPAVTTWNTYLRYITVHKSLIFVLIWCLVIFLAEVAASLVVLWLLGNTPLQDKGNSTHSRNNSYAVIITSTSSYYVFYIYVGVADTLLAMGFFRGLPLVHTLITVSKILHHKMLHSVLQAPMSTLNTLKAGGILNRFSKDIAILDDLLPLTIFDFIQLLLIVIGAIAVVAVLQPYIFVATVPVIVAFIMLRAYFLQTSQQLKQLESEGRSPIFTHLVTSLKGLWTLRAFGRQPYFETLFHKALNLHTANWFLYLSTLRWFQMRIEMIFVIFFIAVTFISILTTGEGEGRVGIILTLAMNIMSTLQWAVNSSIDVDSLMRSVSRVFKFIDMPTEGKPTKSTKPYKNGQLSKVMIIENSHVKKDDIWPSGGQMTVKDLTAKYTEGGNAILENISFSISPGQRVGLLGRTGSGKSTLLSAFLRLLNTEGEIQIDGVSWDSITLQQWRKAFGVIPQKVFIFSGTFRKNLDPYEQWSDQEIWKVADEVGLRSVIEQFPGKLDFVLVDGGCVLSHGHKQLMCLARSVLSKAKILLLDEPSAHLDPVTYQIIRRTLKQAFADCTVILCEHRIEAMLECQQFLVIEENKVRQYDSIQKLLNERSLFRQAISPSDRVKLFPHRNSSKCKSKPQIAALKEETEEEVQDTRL
T1 sequence (P34158 whole entry): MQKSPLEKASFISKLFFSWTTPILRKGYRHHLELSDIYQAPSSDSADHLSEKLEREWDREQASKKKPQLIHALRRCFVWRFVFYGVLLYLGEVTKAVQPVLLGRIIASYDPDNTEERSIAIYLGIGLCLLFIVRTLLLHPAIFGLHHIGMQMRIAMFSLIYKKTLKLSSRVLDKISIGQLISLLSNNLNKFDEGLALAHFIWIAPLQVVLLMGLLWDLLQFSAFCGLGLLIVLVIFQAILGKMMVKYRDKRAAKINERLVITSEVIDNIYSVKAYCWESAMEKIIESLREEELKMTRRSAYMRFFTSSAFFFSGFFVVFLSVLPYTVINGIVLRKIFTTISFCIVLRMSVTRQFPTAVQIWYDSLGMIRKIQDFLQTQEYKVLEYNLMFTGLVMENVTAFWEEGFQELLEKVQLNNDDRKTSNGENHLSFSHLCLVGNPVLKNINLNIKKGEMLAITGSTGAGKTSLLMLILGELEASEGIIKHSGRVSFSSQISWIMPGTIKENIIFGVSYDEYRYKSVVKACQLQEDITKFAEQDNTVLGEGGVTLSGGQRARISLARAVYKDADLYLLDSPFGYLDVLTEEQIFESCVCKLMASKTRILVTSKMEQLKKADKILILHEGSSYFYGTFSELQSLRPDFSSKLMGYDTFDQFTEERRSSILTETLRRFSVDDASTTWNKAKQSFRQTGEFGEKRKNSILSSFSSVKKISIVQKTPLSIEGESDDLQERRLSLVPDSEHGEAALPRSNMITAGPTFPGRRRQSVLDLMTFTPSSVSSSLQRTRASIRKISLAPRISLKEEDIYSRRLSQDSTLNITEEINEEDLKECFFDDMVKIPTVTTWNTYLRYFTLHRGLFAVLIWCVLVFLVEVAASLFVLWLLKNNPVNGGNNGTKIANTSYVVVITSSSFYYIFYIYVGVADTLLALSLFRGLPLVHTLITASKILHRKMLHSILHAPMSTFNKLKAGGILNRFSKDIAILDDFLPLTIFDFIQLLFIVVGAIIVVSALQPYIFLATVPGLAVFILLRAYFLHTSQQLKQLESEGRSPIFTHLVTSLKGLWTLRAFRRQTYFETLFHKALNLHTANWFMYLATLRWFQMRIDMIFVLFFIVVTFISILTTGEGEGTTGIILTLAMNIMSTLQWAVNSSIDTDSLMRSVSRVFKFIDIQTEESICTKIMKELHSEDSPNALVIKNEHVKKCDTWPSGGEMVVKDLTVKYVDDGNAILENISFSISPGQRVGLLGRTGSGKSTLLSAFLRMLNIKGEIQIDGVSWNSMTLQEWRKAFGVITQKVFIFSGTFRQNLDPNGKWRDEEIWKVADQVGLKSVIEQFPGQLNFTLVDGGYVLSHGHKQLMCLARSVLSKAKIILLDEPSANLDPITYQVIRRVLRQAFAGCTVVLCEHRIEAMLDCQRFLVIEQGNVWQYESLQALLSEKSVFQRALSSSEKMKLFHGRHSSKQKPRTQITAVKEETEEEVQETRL

SMILES: O=C(O)c1ccc(/C=C2\SC(=S)N(c3cccc(C(F)(F)F)c3)C2=O)cc1 [CFTRinh-172, 3-[(3-trifluoromethyl)phenyl]-5-[(4-carboxyphenyl)methylene]-2-thioxo-4-thiazolidinone]
- reduction of short-circuit current (CFTR Cl^− channel): > 80%
- effect on cellular cAMP production (cellular cAMP production; 5 μM): did not affect
- cAMP content (cellular cAMP production; 30 min after 20 μM forskolin, + inhibitor (n=3)): 1140±50 fmol/well
- inhibition of Ca^2+ activated secretion ([1]; 5 μM, UTP 100 μM): did not inhibit
- maximal UTP-dependent short-circuit current ([1]; in presence of 5 μM inhibitor (SE, n=4)): 10.0±0.2 μA/cm^2
- concentration giving significant CFTR inhibition (wildtype CFTR; dose-inhibition, FIG. 2A): 0.3 to 0.6 µM
- relative potency (CFTR inhibition) (wildtype CFTR; relative to CFTRinh-172 = 1.0): 1.0
- vincristine accumulation (MDR-1): did not affect vincristine accumulation

Reference: patent US8058295B2, “Cystic fibrosis transmembrane conductance regulator protein inhibitors and uses thereof” (The Regents of the University of California, priority 2002, dated 2011)
